According to the supplement of paper PMC10307832:

Assays:
Experiment in all cases: relative viability (nuclei count vs DMSO), 5 days (fraction); higher = more cells survive
[1] = compound: Cn1cnc2c(F)c(Nc3ccc(Br)cc3Cl)c(C(=O)NOCCO)cc21 [Selumetinib] + Cc1cc(Nc2cc(N3CCN(C)CC3)nc(Sc3ccc(NC(=O)C4CC4)cc3)n2)n[nH]1 [Tozasertib] (partner 0.1 µM)
Procedure, shortened: (§1)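 Relative viability is defined as nuclei in treated wells over nuclei in vehicle wells. Duplicate plates were run and medians reported. Lung cancer cell lines in 1536-well plates were dosed by pin tool one day after seeding, with one drug or with a fixed anchor-drug dose plus five library-drug doses (not always all listed) in √10 steps, and nuclei were counted after 5 days.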

[2] = compound: Cn1cnc2c(F)c(Nc3ccc(Br)cc3Cl)c(C(=O)NOCCO)cc21 [Selumetinib] + O=C(c1cc(Cc2n[nH]c(=O)c3ccccc23)ccc1F)N1CCN(C(=O)C2CC2)CC1 [Olaparib] (partner 8 µM)
Procedure, shortened: as §1

[3] = compound: CC1(C)CCC(CN2CCN(c3ccc(C(=O)NS(=O)(=O)c4ccc(NCC5CCOCC5)c([N+](=O)[O-])c4)c(Oc4cnc5[nH]ccc5c4)c3)CC2)=C(c2ccc(Cl)cc2)C1 [Venetoclax] + COc1cc2c(Oc3ccc(NC(=O)C4(C(=O)Nc5ccc(F)cc5)CC4)cc3F)ccnc2cc1OCCCN1CCOCC1 [Foretinib] (partner 0.25 µM)
Procedure, shortened: as §1

[4] = compound: CC1(C)CCC(CN2CCN(c3ccc(C(=O)NS(=O)(=O)c4ccc(NCC5CCOCC5)c([N+](=O)[O-])c4)c(Oc4cnc5[nH]ccc5c4)c3)CC2)=C(c2ccc(Cl)cc2)C1 [Venetoclax] + CS(=O)(=O)N1CCN(Cc2cc3nc(-c4cccc5[nH]ncc45)nc(N4CCOCC4)c3s2)CC1 [Pictilisib] (partner 1 µM)
Procedure, shortened: as §1

| Cell Line | relative viability ([1]; first compound 0.02 µM) | relative viability ([1]; first compound 0.06325 µM) | relative viability ([1]; first compound 0.2 µM) | relative viability ([1]; first compound 0.6325 µM) | relative viability ([2]; first compound 0.02 µM) | relative viability ([2]; first compound 0.06325 µM) | relative viability ([2]; first compound 0.2 µM) | relative viability ([2]; first compound 0.6325 µM) | relative viability ([3]; first compound 0.01 µM) | relative viability ([3]; first compound 0.03162 µM) | relative viability ([3]; first compound 0.1 µM) | relative viability ([3]; first compound 0.3162 µM) | relative viability ([3]; first compound 1 µM) | relative viability ([4]; first compound 0.01 µM) | relative viability ([4]; first compound 0.03162 µM) | relative viability ([4]; first compound 0.1 µM) | relative viability ([4]; first compound 0.3162 µM) | relative viability ([4]; first compound 1 µM) |
| --- | --- | --- | --- | --- | --- | --- | --- | --- | --- | --- | --- | --- | --- | --- | --- | --- | --- | --- |
| NCI-H2342 | 0.461 | 0.546 | 0.473 | 0.576 | 0.403 | 0.4 | 0.43 | 0.415 | 1 | 1.23 | 1.03 | 1.01 | 1.13 | – | – | – | – | – |
| SK-MES-1 | 1.08 | 0.894 | 0.949 | 0.676 | 0.728 | 0.779 | 0.695 | 0.599 | 0.895 | 0.988 | 0.951 | 0.991 | 0.899 | 0.345 | 0.398 | 0.315 | 0.334 | 0.349 |
| LCLC-97TM1 | 0.201 | 0.255 | 0.216 | 0.223 | 0.292 | 0.407 | 0.3 | 0.19 | 0.913 | 1.03 | 0.918 | 0.981 | 0.782 | – | 0.264 | 0.173 | 0.273 | 0.21 |
| HCC-44 | 1.12 | 0.93 | 0.747 | 0.701 | 0.988 | 0.997 | 0.983 | 1.01 | – | – | – | – | – | 0.63 | 0.595 | 0.596 | 0.578 | 0.608 |
| 201T | 0.908 | 0.928 | 0.88 | 0.874 | 0.781 | 0.791 | 0.79 | 0.79 | 1.2 | 1.04 | 0.976 | 0.98 | 1.06 | 0.635 | 0.653 | 0.659 | 0.73 | 0.683 |
| HOP-62 | 0.377 | 0.317 | 0.376 | 0.328 | 0.474 | 0.397 | 0.421 | 0.353 | 1.07 | 1.16 | 0.997 | 1.08 | 1.03 | 0.725 | 1.04 | 0.493 | 0.904 | 0.634 |
| NCI-H661 | 0.381 | 0.366 | 0.386 | 0.374 | 0.808 | 0.722 | 0.696 | 0.727 | 0.978 | 1.01 | 1.02 | 0.996 | 0.888 | 0.466 | 0.446 | 0.455 | 0.415 | 0.347 |
| NCI-H2087 | 0.194 | 0.211 | 0.166 | 0.147 | 0.527 | 0.38 | 0.322 | 0.243 | 0.911 | 1.18 | 1.13 | 0.955 | 0.893 | 1.08 | 1.08 | 0.832 | 0.921 | 0.789 |
| NCI-H647 | 0.409 | 0.168 | 0.319 | 0.358 | 0.608 | 0.605 | 0.479 | 0.643 | 1.08 | 1.26 | 1.13 | 1.18 | 1.11 | 0.443 | 0.386 | 0.435 | 0.439 | 0.45 |
| SW 1573 | 0.15 | 0.145 | 0.174 | 0.153 | 0.479 | 0.403 | 0.368 | 0.437 | 0.943 | 0.974 | 0.811 | 0.781 | 0.828 | 0.471 | 0.615 | 0.435 | 0.459 | 0.487 |
| A-427 | 0.205 | 0.193 | 0.168 | 0.17 | 0.724 | 0.771 | 0.802 | 0.845 | 0.957 | 1.2 | 0.944 | 1.24 | 1.11 | 0.651 | 0.809 | 0.588 | 0.834 | 0.705 |
| NCI-H520 | 0.477 | 0.435 | 0.461 | 0.52 | 0.331 | 0.349 | 0.363 | 0.3 | 0.628 | 0.708 | 0.711 | 0.949 | 0.727 | 0.304 | 0.351 | 0.283 | 0.257 | 0.286 |
| NCI-H1755 | 0.597 | 0.552 | 0.563 | 0.558 | 0.848 | 0.787 | 0.807 | 0.847 | 0.905 | 0.893 | 0.951 | 0.882 | 0.899 | 0.346 | 0.482 | 0.398 | 0.449 | 0.465 |
| NCI-H1975 | 0.753 | 0.703 | 0.684 | 0.591 | 0.799 | 0.88 | 0.658 | 0.582 | 0.936 | 1.02 | 0.89 | 0.942 | 0.929 | 0.351 | 0.33 | 0.258 | 0.284 | 0.282 |
| Calu-6 | – | – | – | – | 0.62 | 0.489 | 0.421 | 0.362 | 0.907 | 0.861 | 0.992 | 0.846 | 0.878 | 0.801 | 0.89 | 0.879 | 0.857 | 0.882 |
| SK-LU-1 | 0.301 | 0.306 | 0.29 | 0.252 | 0.467 | 0.459 | 0.401 | 0.335 | 0.776 | 0.853 | 0.767 | 0.816 | 0.775 | 0.558 | 0.634 | 0.524 | 0.592 | 0.511 |
| EMC-BAC-2 | 0.383 | 0.361 | 0.349 | 0.387 | 0.636 | 0.657 | 0.674 | 0.717 | 0.994 | 1.03 | 1.12 | 0.986 | 0.978 | 0.459 | 0.56 | 0.452 | 0.544 | 0.535 |
| LK-2 | 0.17 | 0.189 | 0.221 | 0.144 | 0.811 | 0.842 | 0.818 | 0.759 | 1.15 | 1.34 | 1.27 | 1.18 | 0.891 | 0.799 | 0.636 | 0.512 | 0.54 | 0.613 |
